Patent US10273222B2 (CELGENE QUANTICEL RESEARCH, INC., priority 2013, dated 2019)
pIC50: −log10 of the molar value.

Tests used:
[1] = target: FBXL10 (Homo sapiens (Human), UniProt Q8NHM5); experiment: FBXL10 in vitro enzyme inhibition assay (AlphaScreen); assay type: biochemical
Description: Reaction product was determined quantitatively by AlphaScreen detection after the addition of detection reagents anti-H3K36me1 antibody, AlphaScreen® Streptavidin-coated Donor beads, and AlphaScreen® Protein A Acceptor beads in 50 mM HEPES, pH7.3, 10 mM NaCl, 0.005% Brij35, 5 mM EDTA, 2 mg/ml BSA to final 10 μg/ml beads.
Plates were incubated at room temperature for 40 minutes, followed by addition of 3 μl of 50 μg/ml AlphaScreen® Streptavidin-coated Donor beads and AlphaScreen® Protein A Acceptor beads in 50 mM HEPES, pH7.3, 10 mM NaCl, 0.005% Brij35, 5 mM EDTA, 2 mg/ml BSA. Plates were read by EnVisionMultilabel Reader in AlphaScreen mode after a minimum of 2 hour or up to overnight incubation at room temperature. The AlphaScreen signal for each well was used to determine inhibition constant (IC50).

[2] = target: JMJD2C (Homo sapiens (Human), UniProt Q9H3R0); experiment: JMJD2C in vitro enzyme inhibition assay (TR-FRET); assay type: biochemical
JMJD2C, sequence (Q9H3R0 2-372): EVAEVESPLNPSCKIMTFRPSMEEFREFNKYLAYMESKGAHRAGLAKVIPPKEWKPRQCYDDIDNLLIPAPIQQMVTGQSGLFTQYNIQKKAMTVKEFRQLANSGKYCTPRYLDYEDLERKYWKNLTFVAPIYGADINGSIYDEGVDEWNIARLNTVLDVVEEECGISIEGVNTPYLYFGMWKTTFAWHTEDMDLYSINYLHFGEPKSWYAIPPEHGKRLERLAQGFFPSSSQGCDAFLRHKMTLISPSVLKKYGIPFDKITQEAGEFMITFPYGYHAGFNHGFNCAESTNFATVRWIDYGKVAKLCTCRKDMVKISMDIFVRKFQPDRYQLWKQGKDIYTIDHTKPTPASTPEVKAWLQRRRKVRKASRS
Description: This assay determines the ability of a test compound to inhibit Jarid1A, Jarid1B, JMJD2C, and JMJD2A demethylase activity. […] Baculovirus expressed JMJD2C (GenBank Accession #BC143571, AA 2-372) was purchased from BPS Bioscience (Cat#50105).
The ability of test compounds to inhibit the activity of JMJD2C was determined in 384-well plate format under the following reaction conditions: 0.3 nM JMJD2C, 300 nM H3K9me3-biotin labeled peptide (Anaspec cat #64360), 2 μM alpha-ketoglutaric acid in assay buffer of 50 mM HEPES, pH7.3, 0.005% Brij35, 0.5 mM TCEP, 0.2 mg/ml BSA, 50 μM sodium L-ascorbate, and 2 μM ammonium iron(II) sulfate. Reaction product was determined quantitatively by TR-FRET after the addition of detection reagent Phycolink Streptavidin-allophycocyanin (Prozyme) and Europium-anti-di-methylated histone H3 lysine 9 (H3K9me2) antibody (PerkinElmer) in the presence of 5 mM EDTA in LANCE detection buffer (PerkinElmer) at a final concentration of 50 nM and 1 nM, respectively.
The assay reaction was initiated by the following: 2 μl of the mixture of 900 nM H3K9me3-biotin labeled peptide and 6 μM alpha-ketoglutaric acid with 2 μl of 11-point serial diluted inhibitor in 3% DMSO were added to each well of the plate, followed by the addition of 2 μl of 0.9 nM JMJD2C to initiate the reaction. The reaction mixture was incubated at room temperature for 30 minutes, and terminated by the addition of 6 μl of 5 mM EDTA in LANCE detection buffer containing 100 nM Phycolink Streptavidin-allophycocyanin and 2 nM Europium-anti-H3K9me2 antibody. Plates were read by EnVisionMultilabel Reader in TR-FRET mode (excitation at 320 nm, emission at 615 nm and 665 nm) after 1 hour incubation at room temperature. A ratio was calculated (665/615) for each well and fitted to determine inhibition constant (IC50).

FBXL10, sequence (Q8NHM5 1-650): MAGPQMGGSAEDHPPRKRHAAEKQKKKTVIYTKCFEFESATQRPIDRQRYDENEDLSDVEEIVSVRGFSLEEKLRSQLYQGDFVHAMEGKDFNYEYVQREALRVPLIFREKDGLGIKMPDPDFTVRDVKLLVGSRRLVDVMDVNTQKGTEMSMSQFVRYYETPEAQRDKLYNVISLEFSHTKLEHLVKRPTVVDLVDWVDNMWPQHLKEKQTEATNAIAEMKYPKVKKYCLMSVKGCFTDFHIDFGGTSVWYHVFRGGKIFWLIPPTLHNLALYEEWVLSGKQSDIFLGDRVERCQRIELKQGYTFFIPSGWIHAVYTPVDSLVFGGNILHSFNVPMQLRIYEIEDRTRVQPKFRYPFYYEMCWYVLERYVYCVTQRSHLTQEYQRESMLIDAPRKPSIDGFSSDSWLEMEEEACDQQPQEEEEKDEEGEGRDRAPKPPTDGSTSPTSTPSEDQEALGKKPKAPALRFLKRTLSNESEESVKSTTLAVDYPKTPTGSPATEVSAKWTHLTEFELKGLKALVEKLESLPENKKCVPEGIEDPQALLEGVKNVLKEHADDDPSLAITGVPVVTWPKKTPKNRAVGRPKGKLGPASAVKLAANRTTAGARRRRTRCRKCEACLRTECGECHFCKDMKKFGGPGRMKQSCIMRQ

Structure (SMILES): Cn1cnc(-c2cc(-c3nn[nH]n3)ccn2)c1-c1ccc(F)c(C(=O)NCc2ccccc2)c1 [Example 65, N-benzyl-2-fluoro-5-[3-methyl-5-[4-(2H-tetrazol-5-yl)pyridin-2-yl]imidazol-4-yl]benzamide]
- pIC50 [1]: ≥ 7.00
- pIC50 [2]: 5.00 to 6.00

Structure (SMILES): O=C(O)c1ccnc(-c2cn(Cc3cccc(C(F)(F)F)c3)cn2)c1 [Example 117, 2-[1-[[3-(trifluoromethyl)phenyl]methyl]imidazol-4-yl]pyridine-4-carboxylic acid]
- pIC50 [1]: ≥ 7.00
- pIC50 [2]: 6.00 to 7.00

Structure (SMILES): Cn1cnc(-c2cc(C(=O)O)ccn2)c1-c1cc(F)c(F)cc1OCC1CC1 [Example 121, 2-[5-[2-(cyclopropylmethoxy)-4,5-difluorophenyl]-1-methylimidazol-4-yl]pyridine-4-carboxylic acid]
- pIC50 [1]: ≥ 7.00
- pIC50 [2]: 5.00 to 6.00

Structure (SMILES): Cn1cnc(-c2cc(C(=O)O)ccn2)c1-c1c(F)cccc1OCC1CC1 [Example 122, 2-[5-[2-(cyclopropylmethoxy)-6-fluorophenyl]-1-methylimidazol-4-yl]pyridine-4-carboxylic acid]
- pIC50 [1]: ≥ 7.00
- pIC50 [2]: 5.00 to 6.00

Structure (SMILES): Cc1ccc(OCC2CC2)c(-c2c(-c3cc(C(=O)O)ccn3)ncn2C)c1 [Example 123, 2-[5-[2-(cyclopropylmethoxy)-5-methylphenyl]-1-methylimidazol-4-yl]pyridine-4-carboxylic acid]
- pIC50 [1]: 6.00 to 7.00
- pIC50 [2]: 5.00 to 6.00

Structure (SMILES): O=C(O)c1ccnc(-c2ncn(CCc3ccccc3Cl)c2-c2ccc(F)cc2)c1 [Example 124, 2-[1-[2-(2-chlorophenyl)ethyl]-5-(4-fluorophenyl)imidazol-4-yl]pyridine-4-carboxylic acid]
- pIC50 [1]: ≥ 7.00
- pIC50 [2]: 6.00 to 7.00

Structure (SMILES): O=C(O)c1ccnc(-c2ncn(CC3CC3)c2-c2ccc(F)cc2)c1 [Example 125, 2-[1-(cyclopropylmethyl)-5-(4-fluorophenyl)imidazol-4-yl]pyridine-4-carboxylic acid]
- pIC50 [1]: ≥ 7.00
- pIC50 [2]: 6.00 to 7.00

Structure (SMILES): O=C(O)c1ccnc(-c2ncn(CC3CC3)c2-c2ccc(Cl)cc2)c1 [Example 126, 2-[5-(4-chlorophenyl)-1-(cyclopropylmethyl)imidazol-4-yl]pyridine-4-carboxylic acid]
- pIC50 [1]: ≥ 7.00
- pIC50 [2]: 5.00 to 6.00

Structure (SMILES): O=C(O)c1ccnc(-c2ncn(Cc3ccccc3Cl)c2-c2ccc(F)cc2)c1 [Example 127, 2-[1-[(2-chlorophenyl)methyl]-5-(4-fluorophenyl)imidazol-4-yl]pyridine-4-carboxylic acid]
- pIC50 [1]: ≥ 7.00
- pIC50 [2]: 5.00 to 6.00

Structure (SMILES): CCOc1ccccc1CCn1cnc(-c2cc(-c3nn[nH]n3)ccn2)c1 [Example 128, 2-[1-[2-(2-ethoxyphenyl)ethyl]imidazol-4-yl]-4-(2H-tetrazol-5-yl)pyridine]
- pIC50 [1]: ≥ 7.00
- pIC50 [2]: 5.00 to 6.00

Structure (SMILES): Clc1cccc(Cn2cnc(-c3cc(-c4nn[nH]n4)ccn3)c2)c1 [Example 130, 2-[1-[(3-chlorophenyl)methyl]imidazol-4-yl]-4-(2H-tetrazol-5-yl)pyridine]
- pIC50 [1]: ≥ 7.00
- pIC50 [2]: 5.00 to 6.00

Structure (SMILES): Clc1ccc(Cn2cnc(-c3cc(-c4nn[nH]n4)ccn3)c2)cc1 [Example 131, 2-[1-[(4-chlorophenyl)methyl]imidazol-4-yl]-4-(2H-tetrazol-5-yl)pyridine]
- pIC50 [1]: ≥ 7.00
- pIC50 [2]: 5.00 to 6.00

Structure (SMILES): Fc1ccc(-c2c(-c3cc(-c4nn[nH]n4)ccn3)ncn2CCc2ccccc2Cl)cc1 [Example 132, 2-[1-[2-(2-chlorophenyl)ethyl]-5-(4-fluorophenyl)imidazol-4-yl]-4-(2H-tetrazol-5-yl)pyridine]
- pIC50 [1]: ≥ 7.00
- pIC50 [2]: 5.00 to 6.00

Structure (SMILES): Clc1ccc(-c2c(-c3cc(-c4nn[nH]n4)ccn3)ncn2CCc2ccccc2Cl)cc1 [Example 133, 2-[5-(4-chlorophenyl)-1-[2-(2-chlorophenyl)ethyl]imidazol-4-yl]-4-(2H-tetrazol-5-yl)pyridine]
- pIC50 [1]: 6.00 to 7.00
- pIC50 [2]: 5.00 to 6.00

Structure (SMILES): Fc1ccc(-c2c(-c3cc(-c4nn[nH]n4)ccn3)ncn2CC(F)(F)F)cc1 [Example 134, 2-[5-(4-fluorophenyl)-1-(2,2,2-trifluoroethyl)imidazol-4-yl]-4-(2H-tetrazol-5-yl)pyridine]
- pIC50 [1]: ≥ 7.00
- pIC50 [2]: 5.00 to 6.00

Structure (SMILES): Fc1ccc(-c2c(-c3cc(-c4nn[nH]n4)ccn3)ncn2CC2CC2)cc1 [Example 135, 2-[1-(cyclopropylmethyl)-5-(4-fluorophenyl)imidazol-4-yl]-4-(2H-tetrazol-5-yl)pyridine]
- pIC50 [1]: ≥ 7.00
- pIC50 [2]: 5.00 to 6.00

Structure (SMILES): Clc1ccc(-c2c(-c3cc(-c4nn[nH]n4)ccn3)ncn2CC2CC2)cc1 [Example 136, 2-[5-(4-chlorophenyl)-1-(cyclopropylmethyl)imidazol-4-yl]-4-(2H-tetrazol-5-yl)pyridine]
- pIC50 [1]: ≥ 7.00
- pIC50 [2]: 5.00 to 6.00

Structure (SMILES): Fc1ccc(-c2c(-c3cc(-c4nn[nH]n4)ccn3)ncn2Cc2ccccc2Cl)cc1 [Example 137, 2-[1-[(2-chlorophenyl)methyl]-5-(4-fluorophenyl)imidazol-4-yl]-4-(2H-tetrazol-5-yl)pyridine]
- pIC50 [1]: ≥ 7.00
- pIC50 [2]: 5.00 to 6.00

Structure (SMILES): CC(=O)OCn1nnc(-c2ccnc(-c3ncn(Cc4ccccc4Cl)c3-c3ccc(F)cc3)c2)n1 [Example 138, [5-[2-[1-[(2-chlorophenyl)methyl]-5-(4-fluorophenyl)imidazol-4-yl]pyridin-4-yl]tetrazol-2-yl]methyl acetate]
- pIC50 [1]: 5.00 to 6.00
- pIC50 [2]: 5.00 to 6.00

Structure (SMILES): CC(C)(C)C(=O)OCn1nnc(-c2ccnc(-c3ncn(Cc4ccccc4Cl)c3-c3ccc(F)cc3)c2)n1 [Example 139, [5-[2-[1-[(2-chlorophenyl)methyl]-5-(4-fluorophenyl)imidazol-4-yl]pyridin-4-yl]tetrazol-2-yl]methyl 2,2-dimethylpropanoate]
- pIC50 [1]: 5.00 to 6.00
- pIC50 [2]: 5.00 to 6.00

Structure (SMILES): c1ccc2c(c1)CCC(Cn1cnc(-c3cc(-c4nn[nH]n4)ccn3)c1)C2 (stereo not shown) [Example 146, 2-[1-(1,2,3,4-tetrahydronaphthalen-2-ylmethyl)imidazol-4-yl]-4-(2H-tetrazol-5-yl)pyridine]
- pIC50 [1]: ≥ 7.00
- pIC50 [2]: 5.00 to 6.00

Structure (SMILES): c1ccc2c(c1)CC(Cn1cnc(-c3cc(-c4nn[nH]n4)ccn3)c1)C2 [Example 147, 2-[1-(2,3-dihydro-1H-inden-2-ylmethyl)imidazol-4-yl]-4-(2H-tetrazol-5-yl)pyridine]
- pIC50 [1]: ≥ 7.00
- pIC50 [2]: 5.00 to 6.00

Structure (SMILES): Cn1cnc(-c2cc(-c3nn[nH]n3)ccn2)c1-c1ccc(F)cc1OCc1ccccc1 [Example 148, 2-[5-(4-fluoro-2-phenylmethoxyphenyl)-1-methylimidazol-4-yl]-4-(2H-tetrazol-5-yl)pyridine]
- pIC50 [1]: ≥ 7.00
- pIC50 [2]: 5.00 to 6.00

Structure (SMILES): CCCCOc1cc(F)ccc1-c1c(-c2cc(-c3nn[nH]n3)ccn2)ncn1C [Example 149, 2-[5-(2-butoxy-4-fluorophenyl)-1-methylimidazol-4-yl]-4-(2H-tetrazol-5-yl)pyridine]
- pIC50 [1]: ≥ 7.00
- pIC50 [2]: 5.00 to 6.00

Structure (SMILES): Clc1cccc(Cl)c1Cn1cnc(-c2cc(-c3nn[nH]n3)ccn2)c1 [Example 151, 2-[1-[(2,6-dichlorophenyl)methyl]imidazol-4-yl]-4-(2H-tetrazol-5-yl)pyridine]
- pIC50 [1]: ≥ 7.00
- pIC50 [2]: 5.00 to 6.00

Structure (SMILES): FC(F)(F)COc1ccccc1Cn1cnc(-c2cc(-c3nn[nH]n3)ccn2)c1 [Example 152, 4-(2H-tetrazol-5-yl)-2-[1-[[2-(2,2,2-trifluoroethoxy)phenyl]methyl]imidazol-4-yl]pyridine]
- pIC50 [1]: ≥ 7.00
- pIC50 [2]: 5.00 to 6.00

Structure (SMILES): CC(C)COc1ccccc1Cn1cnc(-c2cc(-c3nn[nH]n3)ccn2)c1 [Example 153, 2-[1-[[2-(2-methylpropoxy)phenyl]methyl]imidazol-4-yl]-4-(2H-tetrazol-5-yl)pyridine]
- pIC50 [1]: 6.00 to 7.00
- pIC50 [2]: 5.00 to 6.00

Structure (SMILES): c1ccc2c(Cn3cnc(-c4cc(-c5nn[nH]n5)ccn4)c3)cccc2c1 [Example 155, 2-[1-(naphthalen-1-ylmethyl)imidazol-4-yl]-4-(2H-tetrazol-5-yl)pyridine]
- pIC50 [1]: ≥ 7.00
- pIC50 [2]: 5.00 to 6.00

Structure (SMILES): FC(F)(F)Oc1ccccc1Cn1cnc(-c2cc(-c3nn[nH]n3)ccn2)c1 [Example 156, 4-(2H-tetrazol-5-yl)-2-[1-[[2-(trifluoromethoxy)phenyl]methyl]imidazol-4-yl]pyridine]
- pIC50 [1]: ≥ 7.00
- pIC50 [2]: 5.00 to 6.00

Structure (SMILES): CC(c1ccccc1Cl)n1cnc(-c2cc(-c3nn[nH]n3)ccn2)c1 (stereo not shown) [Example 157, 2-[1-[1-(2-chlorophenyl)ethyl]imidazol-4-yl]-4-(2H-tetrazol-5-yl)pyridine]
- pIC50 [1]: ≥ 7.00
- pIC50 [2]: 5.00 to 6.00

Structure (SMILES): Clc1cccc(Cn2cnc(-c3cc(-c4nn[nH]n4)ccn3)c2)c1Cl [Example 158, 2-[1-[(2,3-dichlorophenyl)methyl]imidazol-4-yl]-4-(2H-tetrazol-5-yl)pyridine]
- pIC50 [1]: ≥ 7.00
- pIC50 [2]: 5.00 to 6.00

Structure (SMILES): Cn1cnc(-c2cc(-c3nn[nH]n3)ccn2)c1-c1ccc(F)c(OCC(F)(F)F)c1 [Example 159, 2-[5-[4-fluoro-3-(2,2,2-trifluoroethoxy)phenyl]-1-methylimidazol-4-yl]-4-(2H-tetrazol-5-yl)pyridine]
- pIC50 [1]: 6.00 to 7.00
- pIC50 [2]: 5.00 to 6.00

Structure (SMILES): Cn1cnc(-c2cc(-c3nn[nH]n3)ccn2)c1-c1ccc(F)c(OCc2ccccc2)c1 [Example 160, 2-[5-(4-fluoro-3-phenylmethoxyphenyl)-1-methylimidazol-4-yl]-4-(2H-tetrazol-5-yl)pyridine]
- pIC50 [1]: ≥ 7.00
- pIC50 [2]: 5.00 to 6.00

Structure (SMILES): Cn1cnc(-c2cc(-c3nn[nH]n3)ccn2)c1-c1ccc(Cl)c(OCc2ccccc2)c1 [Example 161, 2-[5-(4-chloro-3-phenylmethoxyphenyl)-1-methylimidazol-4-yl]-4-(2H-tetrazol-5-yl)pyridi]
- pIC50 [1]: ≥ 7.00
